“And” between values parts separate entries of the source, which are not always exact repeats. Identical values can stand only once.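 Values below derive from 48-hour exposures of cells grown in 96-well plates, with endpoints linearly interpolated between the two concentrations bracketing the appropriate inhibition level. Here, GI50 denotes the concentration required for 50% inhibition of growth. TGI marks complete inhibition of growth.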
Test system: HOP-92 NSCLC
Assay: NCI tumour cell line growth inhibition, 48 h

Row | Compound | TGI | GI50
1 | O=C(O)C12CC3(C(=O)O)CC(C(=O)O)(CC(C(=O)O)(C1)C3=O)C2=O | > 100 µM | –
2 | O=c1c2ccccc2nc(-c2ccccc2)n1NC(=S)Nc1ccccc1 | > 100 µM | –
3 | CCOC(=O)/C(=C/c1cccc(C#N)c1)N(CC)CC | > 100 µM | –
4 | O=S1(=O)OCCOS(=O)(=O)C1Cl | > 100 µM | –
5 | COc1cc(C2C(C(=O)Nc3cc(F)c(F)cc3F)=C(C)NC(C)=C2C(=O)Nc2cc(F)c(F)cc2F)ccc1O | 18.4 µM | –
6 | Nc1ccc2nc3n(c2c1)C(=O)c1ccccc1-3 | > 100 µM | –
7 | O=c1nc(-c2ccccc2)cc(-c2ccccc2O)[nH]1 | > 100 µM | –
8 | Oc1ccc(Br)cc1C=Nc1ccc(N=Cc2cc(Br)ccc2O)cc1 | > 100 µM | –
9 | CCOc1ccccc1NC(=O)C(=O)Cc1nc2ccccc2s1 | > 100 µM | –
10 | C=CCn1c2c(sc1=S)C(S)N=CN2 (stereo not drawn) | 55 µM | –
11 | Cc1cccc(N=C2NC(=O)C(CC(=O)Nc3cccc(C)c3C)S2)c1 (stereo not drawn) | > 100 µM | –
12 | CN(C)CCSc1nccc(-c2cc3ccccc3s2)n1 | 33.5 µM | –
13 | O=C(O)CSc1n[nH]c(Cc2ccccc2)n1 | > 100 µM | –
14 | O=C1C(Cl)=C(Nc2ccccc2O)C(=O)N1Cc1ccccc1 | 48.3 µM | 21.4 µM
15 | CCOc1ccccc1NC(=O)C(C#N)C1=C(Cl)C(=O)c2ccccc2C1=O (stereo not drawn) | 3.65 µM and 3.19 µM | 1.4 µM

Test system: MOLT-4 leukemia
Assay: NCI tumour cell line growth inhibition, 48 h

Row | Compound | GI50 | TGI
16 | CN1CCN(c2ccc(Nc3ncc4cc(C#N)c(=O)n(C5CCCC5)c4n3)cc2)CC1 | 0.3 µM | 3.17 µM
17 | Nc1ccc2[nH]cc(CCC(=O)O)c2c1 | – | > 100 µM
18 | OCC(O)CNc1ccnc2cc(Cl)ccc12 (stereo not drawn) | – | > 100 µM
19 | Cc1cccc(C(C)C)c1NC(=O)C(=O)C(C(=O)c1ccccc1F)C1OC(=O)c2ccccc21 (stereo not drawn) | – | 27.9 µM
20 | Cc1cccc(C)c1NC(=O)C(=O)CC(=O)c1cccc([N+](=O)[O-])c1 | – | > 100 µM
21 | Cc1ccc(S(=O)(=O)NC(=O)NC2=NC(C)(C)N(c3ccc(Cl)c(Cl)c3)C(N)=N2)cc1 | – | > 100 µM
22 | O=C(O)CN(c1ccccc1)S(=O)(=O)c1ccc([N+](=O)[O-])cc1 | – | > 100 µM
23 | CC1=C(C(=O)NNS(=O)(=O)c2ccc(C)cc2)CC(C(=O)NNS(=O)(=O)c2ccc(C)cc2)=C(C)N1 | – | > 100 µM
24 | Clc1cc(Cl)cc(Nc2ccc3cc(OCCCN4CCOCC4)ccc3n2)c1 | 1.77 µM | 5.81 µM
25 | [F][Sn]([F])([c]1ccccc1)[c]1ccccc1 | 1.17 µM | 5.22 µM
26 | N#CC(C(=O)CCC(=O)Nc1cccc(C(F)(F)F)c1)c1ccc(Cl)cc1 (stereo not drawn) | – | > 100 µM
27 | Cc1cc(C(C)(C)C)cc(Cc2cc(C(C)(C)C)cc(Cc3cc(C(C)(C)C)cc(C)c3O)c2O)c1O | – | 10.6 µM
28 | COC(=O)/C(=C\c1ccc(N(CCC#N)CCC#N)cc1)NC(=O)c1cc([N+](=O)[O-])ccc1Cl | – | > 100 µM
29 | COC1=C(Br)C(=O)c2nc(C)ccc2C1=O | – | > 20.8 µM
30 | C/C(CCn1[nH]c(=O)ccc1=O)=N\OCCCc1ccccc1 | – | > 100 µM
31 | COC(=O)c1cccc2cccc(C(=O)Nc3ccc(Cl)cc3)c12 | – | > 100 µM
32 | Nc1nc(N)c2cc(CNc3ccc(C(=O)NC(CC(=O)O)C(=O)O)c(Cl)c3)ccc2n1 (stereo not drawn) | 0.05 µM | > 31.6 µM and 316 µM
33 | N.N.NCCCCCCCCCN.O=C([O-])CC(=O)[O-].O=C([O-])CC(=O)[O-].[Pt+4].[Pt+4] | > 100 µM | > 100 µM
34 | CC(=O)OC1C2CCC1C1C2C2(Cl)C(Cl)=C(Cl)C1(Cl)C2(Cl)Cl (stereo not drawn) | – | 26.4 µM
35 | CC(C(=O)n1c2ccccc2c2ccccc21)N(c1ccccc1)c1ccccc1 (stereo not drawn) | – | 29.3 µM
36 | CCOC(=O)Cn1c(=O)n(C)c(=O)c2c1ncn2Cc1ccccc1 | – | > 100 µM
37 | CCCCc1c2c(nc3c1CCC/C3=C\c1ccccc1)/C(=C/c1ccccc1)CCC2 | – | > 100 µM
38 | CC(C)(C)OC(=O)N1N=NC2C1C1CC(OCc3ccccc3)(OCc3ccccc3)C2O1 (stereo not drawn) | – | > 100 µM
39 | CC(O)CC(O)(C(F)(F)F)C(F)(F)F (stereo not drawn) | – | > 10 µM
40 | CC1=CC(=O)C(C(O)(C(F)(F)F)C(F)(F)F)C(C)(C)C1 (stereo not drawn) | – | > 10 µM
41 | O=C1C(=O)N(c2cc(Cl)ccc2Cl)C(=O)C(=O)C1c1nc2ccccc2o1 | – | > 100 µM
42 | O=C(O)C12CC3(C(=O)O)CC(C(=O)O)(CC(C(=O)O)(C1)C3=O)C2=O | – | > 100 µM
43 | O=c1c2ccccc2nc(-c2ccccc2)n1NC(=S)Nc1ccccc1 | – | > 100 µM
44 | CCOC(=O)/C(=C/c1cccc(C#N)c1)N(CC)CC | – | > 100 µM
45 | C=CCN1CC2CON(C(=O)C(OC)(c3ccccc3)C(F)(F)F)C2C1C(C)C (stereo not drawn) | 15 µg/mL | 46.6 µg/mL

Reference: PubChem BioAssay (NCI)
